From patent US20230364069A1, “METHOD FOR TREATING NON-ALCOHOLIC STEATOHEPATITIS THROUGH CO-ADMINISTRATION OF CURCUMIN DERIVATIVE AND TGF-B RECEPTOR INHIBITOR” (UNIVERSITY INDUSTRY FOUNDATION, YONSEI UNIVERSITY WONJU …, priority 2021, published 2023)

Legend:
[1] = tested on: AML12 cells (mouse hepatocyte cell lines); assay: Cytotoxicity of curcumin derivatives (MTT) with TGF-β treatment; assay type: cell-based; details: 2 ng/ml TGF-β; at concentrations other than 0.1 μM (1, 3, 5 μM); FIG. 1
Description: Cell experiments were performed by using AML12, […], and LX-2 cells, a human hepatic stellate cell.
AML12 cells were cultured in a culture medium made by adding 5 ml of insulin (ITS), 40 ng/ml of dexamethasone, 1% penicillin streptomycin (anti-anti), and 10% fetal bovine serum (FBS) to F-12 media (Corning Incorporated, USA, Arizona), a mixture of a DMEM medium and Ham's F-12 at a ratio of 50:50, which is used for culturing hepatocytes or prostate epithelial cells.
In order to confirm cytotoxicity, the cells of Example 1-1 were treated with 2 ng/ml of TGF-β, and then with curcumin (CUR), curcumin 5-8 (CURS-8), curcumin 4-8 (CUR4-8), and curcumin 5-14 (CURS-14) at 0.1, 1, 3, and 5 μM, respectively, for the same period of time. Thereafter, cells cultured in an incubator of 5% CO2 at 37° C. were stained with a tetrazolium dye capable of staining surviving cells (MTT), and absorbance was measured by using a spectrophotometer.
By a method described in Example 1-2, the numbers of surviving cells when curcumin (CUR) and curcumin derivatives (CUR5-8, CUR4-8, and CUR5-14) each were co-administered with TGF-β at respective concentrations were measured.

[2] = tested on: mouse hepatocyte cell lines (AML12); assay: TGF-β-induced fibrosis, co-administration of curcumin derivative and EW-7197 (epithelial-mesenchymal conversion, BODIPY, α-SMA staining, Western blotting); assay type: cell-based; details: 2 ng/ml TGF-β, 24 hours, 1 μM Cur or Cur5-8, 10 μM EW-7197
Description: Fibrosis was induced in hepatocytes with TGF-β, a curcumin derivative and a TGF-β receptor inhibitor were co-administered, and then fibrosis and fat synthesis and degradation were checked.
Specifically, 2 ng/ml of TGF-β was administered to the cells of Example 1-1, the cells were divided into administration groups of vehicle (Veh), 1 μM curcumin (Cur), 1 μM curcumin 5-8 (Cur5-8), 0.5 μM EW-7197 (EW0.5), 10 μM EW-7197 (EW or EW10), 1 μM curcumin and 0.5 μM EW-7197 (EW0.5+Cur), 1 μM curcumin and 10 μM EW-7197 (EW+Cur or EW10+Cur), 1 μM curcumin 5-8 and 0.5 μM EW-7197 (EW0.5+Cur5-8), 1 μM curcumin 5-8 and 10 μM EW-7197 (EW+Cur5-8 or EW10+Cur5-8), respective samples were administered, and culturing was performed for 24 hours. The control group (Con) was not treated with either TGF-β or the sample. […] After washing with PBS 1×, stained cells were observed.
In addition, in order to check the degree of fibrosis of hepatocytes, the cells cultured for 24 hours were fixed with 4% paraformaldehyde and then stained by using α-SMA (Santa Cruz Biotechnology, Inc., Dallas, Texas, USA), an Alexafluor 488 (Cell Signaling Technology, Danvers, Massachusetts, USA) antibody, and DAPI (Abcam plc., Cambridge, MA, USA). The cells were mounted with a mounting solution (Fisher Scientific, Hampton, Rockingham, USA), the manufactured sample was photographed using a confocal microscope to obtain photographs of stained cells, and the degree of color development in the photographs of the stained cells was analyzed with the ImageJ program.
In addition, in order to confirm the degree of fibrosis of hepatocytes, the cells cultured for 24 hours were collected, and protein expressions of α-SMA, Collagen I (Coll), p-SMAD2, and p-SMAD3 were checked by Western blotting with fibrosis markers in the same method as described in <Example 1-3>.
In order to check a synergistic effect of inhibiting fibrosis caused by a TGF-β and inhibiting fat accumulation caused thereby in case of co-administration of a curcumin derivative (Cur5-8) and a TGF-β receptor inhibitor (EW-7197), epithelial-mesenchymal conversion of hepatocytes was confirmed through a cell experiment by the method described in Example 1-5, and BODIPY staining and α-SMA staining were performed. Also, protein expressions of α-SMA, Collagen I p-SMAD2, and p-SMAD3 were checked by Western blotting.

## COc1cc(C#Cc2cncc(C#Cc3ccc(O)c(OC)c3)c2)ccc1O [Cur4-8, 4,4′-(3,5-Pyridinediyldi-2,1-ethynediyl)bis(2-methoxyphenol)]
[1]
  cytotoxicity (MTT): cytotoxicity was high

## COc1cc(/C=C/C(=O)CC(=O)/C=C/c2ccc(O)c(OC)c2)ccc1O [Cur, curcumin]
[2]; FIG. 8
  epithelial-mesenchymal conversion caused by TGF-β: not inhibited
[2]; FIGS. 8, 10, 11
  liver fibrosis (α-SMA staining, fibrosis marker Western blotting): liver fibrosis was induced
